Test results published in patent US20260373434A1, “QUICK DISSOLVABLE MICRONEEDLE WITH ENHANCED MECHANICAL STRENGTH, ITS COMPOSITIONS AND METHOD FOR FABRICATION THEREOF” (TRANSFORM SCITECH PRIVATE LIMITED, priority 2023, published 2026).
Where a name gives a salt, the structure may show the parent alone.

Tests used:
[1] = in vitro drug release study (Franz diffusion cell, pH 7.4); format: physicochemical; conditions: pH 7.4, 37 °C
Experimental: • Equipment: Franz diffusion cell shown in FIG. 38. • Dissolution medium: Physiological buffer solution pH (7.4) • Temperature: 37±0.2 °C. • Rotational speed: 100 rpm • Mode of sample analysis for Salbutamol sulphate—HPLC-UV analysis using RP C18 250X 4.6 mm; 5-micron, 100 A column and 87 parts of ammonium acetate buffer (pH 3.0, 20 mM) with sodium hexane sulfonate in combination with 13 parts of acetonitrile as a mobile phase. • Mode of sample analysis for Lorazepam—UV analysis, absorbance 280 nm • Mode of sample analysis for Cetirizine dihydrochloride—UV analysis, absorbance 276 nm • Mode of sample analysis for Ondansetran—UV analysis, absorbance 249 nm
Drug release at early time points was used to check the quick release characteristics. Salbutamol sulphate, Lorazepam and Cetirizine dihydrochloride which are soluble drugs released more than 80% achieving the quick release characteristics. Ondansetran which is a poorly soluble drug released about 30% in 20 minutes. Probably owing to its slow rate of dissolution. All drugs were analysed using appropriate UV/HPLC method as described in EXAMPLE 3. (FIGS. 39, 40, 41, 42, 43, 44)

[2] = drug classification and dissolution in the fabrication solvent; format: physicochemical; conditions: fabrication stage
Experimental: Salbutamol sulphate (Dose per patch 2.5 mg) and Lorazepam (Dose per patch 4 mg) are BCS Class I drugs, Cetirizine dihydrochloride (Dose per patch 5 mg) is BCS class III and Ondansetron Hydrochloride (Dose per patch 16 mg) is BCS Class II. The various drugs were studied for suitability of incorporation into the Dissolving microneedle formulation.

## O=C(O)COCCN1CCN(C(c2ccccc2)c2ccc(Cl)cc2)CC1 (centres unmarked) [Cetirizine dihydrochloride]
[1]; batch MN01/02/83A, early time points, UV 276 nm
  Cetirizine dihydrochloride released: more than 80%

## O=C1Nc2ccc(Cl)cc2C(c2ccccc2Cl)=NC1O (centres unmarked) [Lorazepam]
[1]; batch MN01/02/82, early time points, UV 280 nm
  Lorazepam released: more than 80%

## Cc1nccn1CC1CCc2c(c3ccccc3n2C)C1=O (centres unmarked) [Ondansetron Hydrochloride]
[2]
  dissolution of drug in the aqueous solvent during fabrication: remained dispersed
[1]; batch MN01/02/84, in 20 minutes, UV 249 nm
  Ondansetran released: about 30%

## CC(C)(C)NCC(O)c1ccc(O)c(CO)c1 (centres unmarked) [Salbutamol sulphate]
[1]; batches MN01/02/64, MN01/02/77/A, MN01/02/77/B, early time points, HPLC-UV
  Salbutamol sulphate released: more than 80%
